According to PMC8179002, “Inhibitors of thiol-mediated uptake” (Chemical Science, 2020):
Like-named read-outs stand apart in the source and are kept apart here.

Tests used:
[1] = tested on: HeLa Kyoto cells; conditions: cited from earlier work
[2] = tested on: HeLa Kyoto cells; assay: Relative cell viability in HCHT screening (propidium iodide negative nuclei count); type: cell-based; conditions: HeLa, removal, tinc 0.5 h with 1 (10 µM), read-out: GI50, concentration causing 50% cell growth inhibition
Procedure: (§1) With COCs 1 and 2 as cell-penetrating reporters, a fully automated, fluorescent microscopy image-based high-content high-throughput (HCHT)[19] inhibitor screening assay was developed. HeLa cells in multiwell plates are incubated with a reporter at constant and inhibitors at varying concentrations and incubation times. Hindered reporter uptake then causes decrease of fluorescence inside of cells (Fig. 3a). Automated data analysis[19] was established to extract average fluorescence intensity per cell and, at the same time, cell viability from propidium iodide negative nuclei count (Fig. 3 and S3–S6 ^†). Standard assay conditions consisted of pre-incubation of HeLa cells with inhibitors for different periods of time, followed by the removal of inhibitors and the addition of reporters, thus excluding possible interactions between the two in the extracellular environment. In alternative co-incubation conditions, inhibitors were not removed before the addition of reporters to allow for eventual interactions between the two.
(§2) To be able to extract the fluorescent integrated intensity information (sum of the intensities of all the pixels included in the mask) from the green channel for live cell only, the image analysis pipeline contains several steps of cell filtering and selection:
(§3) 1) Firstly, PI is used to stain any remaining nuclei of dead cell. In the analysis pipeline, all the “dead” nuclei are detected based on their fluorescent intensity in the PI channel (Figure […]
(§4) Fig. S4 (A) PI positive nuclei mask (fluorescent intensity threshold of 1000). (B) Overlap image of dead nuclei mask and original all cell body mask. (C) Resulting cell mask after removing any cell marked by a dead nucleus, new mask is called “Live Cell”. Scale bar: 50 μm.
(§5) 2) Elimination of non-full cells from the border of the image is performed, to avoid inaccurate fluorescent integrated intensity quantification (fluorescent integrated intensity = sum of intensity of all the pixel of the object) (Figure S5).
(§6) (1 picture or pasted object on this page, not shown here)
(§7) 4.3. HCHT Inhibitor Screening with ETP as Reporter […]
(§8) Relative cell viability (RV) for each condition in the presence of inhibitors were calculated using the count value of living cells by dividing the count value of living cells with addition of reporter 1, Hoechst 33342 and PI, for each set of experiments. Duplicates were performed for each condition. The resulting dependence of the relative cell viability (RVrel) to the concentration of inhibitors (cinhibitor) was plotted and fitted with Equation (S2) to retrieve the concentration causing 50% cell growth inhibition (GI50) value and the Hill coefficient (n).
(§9) RVrel = 1 / (1 + (GI50 / cinhibitor)n) (S2)
(§10) Note: Reporter 1 were not toxic for 1 h at 10 μM.S2 Also in this study, the count value of living cells with addition of reporter 1, Hoechst 33342 and PI is always similar to that of living cells with only addition of Hoechst 33342 and PI.
as §8, with “with” for “in the presence of”, “2,” for “1,”
(§11) Note: Reporter 2 were not toxic for 24 h at 10 μM.S3 Also in this study, the count value of living cells with addition of reporter 2, Hoechst 33342 and PI is always similar to that of living cells with only addition of Hoechst 33342 and PI.
(§12) 4.4.1. Screening with Disulfides as Inhibitors
(§13) 4.4.1.1. Screening with ETP as Inhibitors
(§14) Fig. S35 Automatically analyzed HCHT data showing fluorescence intensity (filled symbols) and relative viability (empty symbols) of HeLa cells after pre-incubation with 3 for 1 h (blue […]

[3] = tested on: cellular uptake of 1 in HeLa Kyoto cells; assay: cells; type: cell-based; conditions: HeLa; for MIC, inhibition of cellular uptake of 1 / IC50 / minimal effective concentration: removal, tinc 0.5 h with 1 (10 µM); for IC50: read-out: IC50, inhibition of cellular uptake of 1; for minimal effective concentration: read-out: MIC, inhibition of cellular uptake of 1
Procedure: as §1
4. High-Content High-Throughput (HCHT) Inhibitor Screening
4.1. General Procedure for HCHT Inhibitor Screening
4.1.1. Pre-Incubation of Inhibitors
HeLa Kyoto cells were seeded at 1.2 ×10^4 cells/well in FluoroBrite DMEM + 10% FBS on μ-Plate 96-well Black ibiTreat sterile and kept at 37 °C with 5% CO2 overnight. Next day, serial dilutions of the inhibitors in PBS (10x final concentration), reporter 1 or 2 (100 μM in PBS) and a solution of Hoechst 33342 (100 μg/mL) and PI (10 μg/mL) in PBS were prepared freshly in a 96-well V-bottom plate. Then, cells were washed with PBS ([…]) and the media was exchanged to FluoroBrite DMEM (4 x 150 μL/well) using a plate washer (Biotek EL406®), keeping always a final volume of 135 μL/well. The inhibitor solutions from the V-bottom plate were added to the cells (15 μL/well, 10x final concentration in PBS) using an electronic multichannel pipettes to reach a final volume of 150 μL/well. Cells were incubated for the time of interest (for details of each inhibitors, see Section 4.3 and 4.4) at 37 °C with 5%
CO2. After this, cells were washed again using the plate washer and reporter solution 1 or 2 from the V-bottom plate was added (15 μL/well) using an electronic multichannel pipettes to reach a final volume of 150 μL/well and a final concentration of 10 μM, except for the control wells, where only PBS was added (15 μL/well). After 30 min of incubation at 37 °C with 5% CO2, the plate was washed again using the plate washer. Then, the solution of Hoechst 33342 and PI from V-bottom plate was added (15 μL/well) using an electronic multichannel pipettes to reach a final volume of 150 μL/well. After 15 min of incubation at 37 °C with 5% CO2, the plate was washed one last time and the cells were kept in clean FluoroBrite DMEM. During imaging, samples were kept at 37 °C with 5% CO2 in the microscope.
4.1.2. Co-Incubation of Inhibitors and Reporters […]
serial dilutions of the inhibitors in PBS (10x final concentration), reporter 1 or 2 (110 μM in […]
freshly in a 96-well V-bottom plate. Then, cells were washed with the plate washer. The inhibitor solutions from the V-bottom plate were added to the cells (15 μL/well, 10x final concentration in PBS) using an electronic multichannel pipettes to reach a final volume of 150 μL/well. Cells were incubated for the time of interest (for details of each inhibitors, see Section 4.3 and 4.4) at 37 °C with 5% CO2. Reporter solution 1 or 2 from V-bottom plate was then added (15 μL/well) using an electronic multichannel pipettes to reach a final volume of 165 μL/well and a final concentration of 10 μM 30 min before the next washing process, except for the control wells, where only PBS was added (15 μL/well). The plate was washed again using the plate washer. The solution of Hoechst 33342 and PI from V-bottom plate was added (15 μL/well) using an electronic multichannel pipettes to reach a final volume of 150 μL/well. After […]

[4] = tested on: thiol-mediated uptake; assay: Inhibition of thiol-mediated uptake, reporter and protocol not stated; type: cell-based; conditions: preliminary results; note 34
[5] = Relative cell viability in HCHT screening (propidium iodide negative nuclei count); type: cell-based; conditions: human; for GI50: HeLa, removal, tinc 0.5 h with 1 (10 µM), read-out: GI50, concentration causing 50% cell growth inhibition
Procedure: as §1, §2, §3, §4, §5, §6, §7, §8, §9, §10
as §8, with “with” for “in the presence of”, “2,” for “1,”
as §11, §12, §13, §14

[6] = HeLa Kyoto, 1 h, tpre 1 h with inhibitor
[7] = HeLa Kyoto, 2 h, tpre 2 h with inhibitor
[8] = HeLa Kyoto, tpre 1 h with inhibitor
[9] = HeLa Kyoto, tpre 2 h with inhibitor
[10] = HeLa Kyoto, 0.5 h, tpre 0.5 h with inhibitor
[11] = GI50, concentration causing 50% cell growth inhibition

In the case of O=C(NCCNC(=S)Nc1ccc(-c2c3ccc(=O)cc-3oc3cc(O)ccc23)c(C(=O)O)c1)c1ccc2c(c1)SSSSS2 [compound 2], the Toxicity of reporter ([1]; 24 h at 10 μM, ref S3) is listed as “not toxic”.

[O-][S+]1CC(O)C(O)CS1 (stereo not drawn) [compound 22] showed a GI50 ([2]; tpre 1 h with inhibitor) of 4.4 ± 0.2 mM, a GI50 ([2]; tpre 2 h with inhibitor) greater than 5 mM and a GI50 ([2]; tpre 4 h with inhibitor) greater than 2 mM. For the same compound, the “MIC, inhibition of cellular uptake of 1” value ([3]; tpre 1 h with inhibitor) was 800 µM, the IC50 ([3]; tpre 1 h with inhibitor) was greater than 5 mM and the “MIC, inhibition of cellular uptake of 1” value ([3]; tpre 2 h with inhibitor) was 600 µM. For the same compound, the IC50 ([3]; tpre 2 h with inhibitor) was greater than 2 mM, the “MIC, inhibition of cellular uptake of 1” value ([3]; tpre 4 h with inhibitor) was 300 µM and the IC50 ([3]; tpre 4 h with inhibitor) was greater than 2 mM.

For O=c1c2ccccc2[se]n1-c1ccccc1 [ebselen], the “Inhibition of thiol-mediated uptake, in words” value [4] was “inhibits”.

For CCN1C(=O)C2SSC1C(=O)N2CC(=O)NCCNC(=S)Nc1ccc(-c2c3ccc(=O)cc-3oc3cc(O)ccc23)c(C(=O)O)c1 (stereo not drawn) [compound 1], the Toxicity of reporter ([1]; 1 h at 10 μM, ref S2) is given as “not toxic”.

Work on O=C(O)C1CS[S+]([O-])C1 (stereo not drawn) [compound 23] yielded a GI50 ([5]; tpre 1 h with inhibitor) greater than 2 mM, a GI50 ([5]; tpre 2 h with inhibitor) of 1.78 ± 0.12 mM and a GI50 ([5]; tpre 4 h with inhibitor) of 1.47 ± 0.07 mM. The minimal effective concentration [3, 6] was 1000 µM, the minimal effective concentration [3, 7] was 1000 µM and the minimal effective concentration ([3]; HeLa Kyoto, 4 h, tpre 4 h with inhibitor) was 900 µM. The IC50 [3, 8] was greater than 2 mM, the IC50 [3, 9] was greater than 2 mM and the IC50 ([3]; HeLa Kyoto, tpre 4 h with inhibitor) was greater than 1 mM.

Compound COCCOCCOCCNC(=O)c1ccc2c(c1)SSSSS2 [compound 10] has a GI50 ([5]; tpre 0.5 h with inhibitor) of roughly 0.018 mM, a GI50 ([5]; tpre 1 h with inhibitor) of roughly 0.01 mM and a GI50 ([5]; tpre 2 h with inhibitor) of roughly 0.007 mM. The IC50 [3, 10] was 0.0104 ± 0.0003 mM, the minimal effective concentration [3, 10] was 6.5 µM and the minimal effective concentration [3, 6] was 7 µM. The minimal effective concentration [3, 7] was 3.5 µM, the IC50 [3, 8] was 0.0101 ± 0.0001 mM and the IC50 [3, 9] was greater than 0.005 mM.

For CNC(=O)[C@H](CS[S+]([O-])C[C@H](NC(=O)OC(C)(C)C)C(=O)NC)NC(=O)OC(C)(C)C (stereo partly drawn) [compound 26], the GI50 ([5]; tpre 1 h with inhibitor) was greater than 1 mM, the “Inhibition of uptake of reporter 1, in words” value [3] was “disappointing” and the minimal effective concentration [3, 6] was greater than 1000 µM. It also gave an IC50 [3, 8] greater than 1 mM.

In the case of O=C(O)c1cc(SSc2ccc([N+](=O)[O-])c(C(=O)O)c2)ccc1[N+](=O)[O-] [compound 20, 5,5’-Dithiobis(2-nitrobenzoic acid), reference compound], the GI50 at 0.5 h [5, 11] is reported as greater than 10 mM, the GI50 at 1 h [5, 11] is reported as greater than 10 mM and the “Inhibition of uptake of reporter 1, in words” value [3] is reported as “minor inhibition up to around 2 mM, which disappeared again at higher concentrations”. The minimal effective concentration [3, 10] was 200 µM and the minimal effective concentration [3, 6] was 500 µM.

CS(=O)(=O)c1nnc(-c2ccccc2)o1 [compound 14] showed a GI50 ([5]; tpre 0.25 h with inhibitor) greater than 0.5 mM, a GI50 ([5]; tpre 0.5 h with inhibitor) of 0.41 ± 0.099 mM and a minimal effective concentration ([3]; HeLa Kyoto, 0.25 h, tpre 0.25 h with inhibitor) of 40 µM. It also gave an IC50 [3, 10] of 0.204 ± 0.063 mM, a minimal effective concentration [3, 10] of 20 µM and an IC50 ([3]; HeLa Kyoto, tpre 0.25 h with inhibitor) of 0.137 ± 0.028 mM.
